{
  "source": "patent US20190255144A1",
  "about": "“SPECIFIC OLIGOPEPTIDES AS ANTI-ANGIOGENIC DRUGS” (NEURONAX, priority 2014, published 2019)",
  "tested_on": "chorioallantoic membrane (CAM) vascularization",
  "test": "Treatments on the chorioallantoic membrane (CAM), fluorescein angiography",
  "format": "in vivo, chicken embryo",
  "details": "impregnated sponge on CAM at ED9; oligopeptide 250 μg/mL (9 hours), VEGF 10 ng/mL; listed as oligopeptide according to the invention",
  "description": "In fact, TSP-1 is known for inducing the apoptosis of endothelial cells. […] It is also a decisive process under certain physiological and pathological conditions (cancers in particular). This mechanism is controlled by numerous factors having either an inhibitor potential or an activator. So as to evaluate the main properties of these in vivo factors, the most common model is the CAM (chorioallantoic membrane) model from the chicken embryo (Ribatti et al., 2000). It offers the advantage of making it possible to test the pro- or anti-angiogenic factors during an active angiogenesis phase between the embryonic stages 4j and 10j. The major effects of the various molecules can therefore be evaluated in vivo. The model of the CAM can also be used in experimental tumor development. The grafting of human cancer cells onto the surface of the CAM is carried out in the 9-day embryonic stage. Three days after the grafting at ED12, the formation of a tumor is visible at the surface of the CAM. The latter can be treated topically during the 48 hours that follow this stage, and the tumors are sampled at ED14j. The fertilized eggs (Haas Poultry Farm, Strasbourg, France) are kept for 24 hours at 18° C. before the incubation is started up. […] The embryonic stages are determined from tables of Hamburger and Hamilton (H and H, 1951). […]",
  "note": "Entries after “also recorded” stand apart in the source; their conditions may differ.",
  "data": [
    {"substance": "—W—S-G-W—S—S—C—S—R—S—C-G- (WSGWSSCSRSCG; Oligopeptide derived from SCO-Spondin) [NX]", "values": [
      {"measurement": "Vascularization / microvascularization of the CAM (in words)", "result": "inhibition of vascularization; also recorded: comparable to that of the Bevacizumab"}
    ]}
  ]
}
